Experimental findings from patent publication EP4763839A1 (Pamplona Therapeutics (Shenzhen) Co., Ltd., priority 2023, dated 2025) are described below.

One assay concerns the target T1, IRAK4 (Homo sapiens, UniProt Q9NWZ3).
T1 sequence (Q9NWZ3 1-460): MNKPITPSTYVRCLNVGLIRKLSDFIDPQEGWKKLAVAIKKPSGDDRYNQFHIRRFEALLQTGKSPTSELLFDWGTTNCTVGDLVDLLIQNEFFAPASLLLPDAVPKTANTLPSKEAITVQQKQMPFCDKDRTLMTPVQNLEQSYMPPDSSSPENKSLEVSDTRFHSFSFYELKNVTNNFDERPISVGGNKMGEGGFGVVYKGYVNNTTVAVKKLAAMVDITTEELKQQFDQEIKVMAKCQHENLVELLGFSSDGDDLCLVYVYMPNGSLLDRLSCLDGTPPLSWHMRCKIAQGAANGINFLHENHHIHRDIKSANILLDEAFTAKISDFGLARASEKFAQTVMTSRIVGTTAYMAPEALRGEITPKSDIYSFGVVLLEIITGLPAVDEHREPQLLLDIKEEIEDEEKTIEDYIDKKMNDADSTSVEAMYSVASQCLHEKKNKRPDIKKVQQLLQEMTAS
Description: Assay for inhibitory effect of compound on IRAK4 kinase activity (KinEASE-STK S1 HTRF kit). The format is biochemical.
Settings: not given
The method, then:
Example 1: Kinase activity assay
Assay for inhibitory effect of compound on IRAK4 kinase activity
The inhibitory effect of the compound on IRAK4 kinase activity was measured using the KinEASE-STK S1 serine/threonine kinase kit (Cisbio). The specific method was as follows: the compound was dissolved in dimethyl sulfoxide and then subjected to 3-fold serial dilution in dimethyl sulfoxide, yielding final test compound concentrations in the reaction system ranging from 5,000 nM to 0.0254 nM. The kinase at a final concentration of 8 nM was added, followed by incubation at rt for 15 minutes. Subsequently, biotinylated STK1 substrate at a final concentration of 400 nM and adenosine triphosphate (ATP) at a final concentration of 80 µM were sequentially added, and the mixture was incubated at 37°C for 90 minutes. Then, the reaction was terminated by adding an anti-phosphoserine/threonine antibody conjugated with a europium cryptate and streptavidin-conjugated XL665 to the reaction system. After incubation at rt for 1 hour, the fluorescence intensity at emission wavelengths of 620 nm and 665 nm for each well was measured using an EnVision microplate reader (PerkinElmer) in HTRF mode. The ratio value was calculated using the formula: Ratio = (665 nm/620 nm)×10^4 The inhibition rate of the compound at each concentration was calculated using the formula: Inhibition% = [1-(Signal sample-Signal min)/(Signal max-Signal min)]×100. Subsequently, the dose-response curve was fitted by nonlinear curve fitting of log concentration versus inhibition rate using Fit Modela (205) in XLfit to give the IC50 value of the compound for inhibition of protein activity.
`NC(=O)c1nn(-c2ccc(C(=O)O)nc2)cc1NC(=O)c1cccc(C(F)(F)F)n1` [Compound A31]: the half-inhibitory concentration (IC50) lay in the range of 0.1 to 1 µM.

In turn, `COc1nn(-c2ccc(N3CCNCC3)cc2)cc1NC(=O)c1cccc(C(F)(F)F)n1` [Compound A39] returned a half-inhibitory concentration (IC50) of 0.1 to 1 µM.

The compound `CS(=N)(=O)c1cn(-c2ccccc2)nc1NC(=O)c1cccc(C(F)(F)F)n1` (stereo not drawn) [Compound A60] displayed an IC50 above 1 µM.

Staying with this assay, now noted: kinase 8 nM, ATP 80 µM, 37°C 90 minutes; read-out: IRAK4 HTRF IC50.
For the compound `NC(=O)c1nn(-c2ccc(N3CCN(C(=O)c4ccccc4)CC3)cc2)cc1NC(=O)c1cccc(C(F)(F)F)n1` [Compound A28], the IC50 is below 0.1 µM.

As for `NC(=O)c1nn(-c2cccnc2)cc1NC(=O)c1cccc(C(F)(F)F)n1` [Compound A29], the IC50 lay within 0.1 to 1 µM.

`NC(=O)c1nn(C2CC(N)C2)cc1NC(=O)c1cccc(C(F)(F)F)n1` (stereo not drawn) [Compound A32]: the IC50 was below 0.1 µM.

Regarding `NC(=O)c1nn(C2CNC2)cc1NC(=O)c1cccc(C(F)(F)F)n1` [Compound A33], the IC50 lay within 0.1 to 1 µM.

On to `NC(=O)c1nn(C2COC3(CCNCC3)C2)cc1NC(=O)c1cccc(C(F)(F)F)n1` (stereo not drawn) [Compound A35], for which the IC50 is 0.1 to 1 µM.

As to `NC(=O)c1nn(C2CCC(N)CC2)cc1NC(=O)c1cccc(C(F)(F)F)n1` (stereo not drawn) [Compound A36], the IC50 lay within 0.1 to 1 µM.

With `O=C(Nc1cn(-c2ccc(N3CCNCC3)cc2)nc1C(F)F)c1cccc(C(F)(F)F)n1` [Compound A42], the IC50 is below 0.1 µM.

Turning to `CNC1CC(c2nn(-c3ccccc3)cc2NC(=O)c2cccc(C(F)(F)F)n2)C1` (stereo not drawn) [Compound A44, N-(3-(3-(Methylamino)cyclobutyl)-1-phenyl-1H-pyrazol-4-yl)-6-(trifluoromethyl)picolinamide], the half-maximal inhibitory concentration (IC50) was above 1 µM.

As to `NC(=O)c1nn(-c2cncnc2)cc1NC(=O)c1cccc(C(F)(F)F)n1` [Compound A45], the IC50 lay in the range of 0.1 to 1 µM.

`CC(C)(O)c1nn(-c2ccccc2)cc1NC(=O)c1cccc(C(F)(F)F)n1` [Compound A46, N-(3-(2-hydroxypropan-2-yl)-1-phenyl-1H-pyrazol-4-yl)-6-(trifluoromethyl)picolinamide]: the IC50 was in the range of 0.1 to 1 µM.

With `NC(=O)c1cn(-c2ccccc2)cc1NC(=O)c1cccc(C(F)(F)F)n1` [Compound A47], the half-maximal inhibitory concentration (IC50) is below 0.1 µM.

For `NC(=O)c1[nH]c(-c2ccccc2)cc1NC(=O)c1cccc(C(F)(F)F)n1` [Compound A48], the IC50 is below 0.1 µM.

On to `NC(=O)c1sc(-c2ccccc2)cc1NC(=O)c1cccc(C(F)(F)F)n1` [Compound A50], for which the IC50 is above 1 µM.

With `NC(=O)c1cc(-c2ccccc2)sc1NC(=O)c1cccc(C(F)(F)F)n1` [Compound A51], the IC50 is above 1 µM.

With `NC(=O)c1cc(-c2ccccc2)oc1NC(=O)c1cccc(C(F)(F)F)n1` [Compound A53], the IC50 is above 1 µM.

`NC(=O)c1nc(-c2ccccc2)[nH]c1NC(=O)c1cccc(C(F)(F)F)n1` [Compound A54]: the concentration for half-maximal inhibition (IC50) was above 1 µM.

Regarding `NC(=O)c1sc(-c2ccccc2)nc1NC(=O)c1cccc(C(F)(F)F)n1` [Compound A55, 2-Phenyl-4-(6-(trifluoromethyl)picolinamido)thiazole-5-carboxamide], the half-inhibitory concentration (IC50) is above 1 µM.

On to `NC(=O)c1nc(-c2ccccc2)sc1NC(=O)c1cccc(C(F)(F)F)n1` [Compound A56, 2-Phenyl-5-(6-(trifluoromethyl)picolinamido)thiazole-4-carboxamide], for which the IC50 is above 1 µM.

For `NC(=O)c1oc(-c2ccccc2)nc1NC(=O)c1cccc(C(F)(F)F)n1` [Compound A57, 2-Phenyl-4-(6-(trifluoromethyl)picolinamido)oxazole-5-carboxamide], the concentration for half-maximal inhibition (IC50) was above 1 µM.

Take `NC(=O)c1nc(-c2ccccc2)oc1NC(=O)c1cccc(C(F)(F)F)n1` [Compound A58, 2-Phenyl-5-(6-(trifluoromethyl)picolinamido)oxazole-4-carboxamide]: the IC50 was above 1 µM.

With `NS(=O)(=O)c1cn(-c2ccccc2)nc1NC(=O)c1cccc(C(F)(F)F)n1` [Compound A59, N-(1-phenyl-4-sulfamoyl-1H-pyrazol-3-yl)-6-(trifluoromethyl)picolinamide], the IC50 was above 1 µM.

Consider `CC(C)(O)c1cn(-c2ccccc2)nc1NC(=O)c1cccc(C(F)(F)F)n1` [Compound A61, N-(4-(2-hydroxypropan-2-yl)-1-phenyl-1H-pyrazol-3-yl)-6-(trifluoromethyl)picolinamide], for which the IC50 is above 1 µM.

For `NS(=O)(=O)c1nn(-c2ccccc2)cc1NC(=O)c1cccc(C(F)(F)F)n1` [Compound A62, N-(1-phenyl-3-sulfamoyl-1H-pyrazol-4-yl)-6-(trifluoromethyl)picolinamide], the IC50 lay in the range of 0.1 to 1 µM.

Turning to `N#Cc1nn(-c2ccccc2)cc1NC(=O)c1cccc(C(F)(F)F)n1` [Compound A64, N-(3-cyano-1-phenyl-1H-pyrazol-4-yl)-6-(trifluoromethyl)picolinamide], the half-maximal inhibitory concentration (IC50) was above 1 µM.

On to `O=C(Nc1cn(-c2ccccc2)nc1C1CC(O)C1)c1cccc(C(F)(F)F)n1` (stereo not drawn) [Compound A65, N-(3-(3-hydroxycyclobutyl)-1-phenyl-1H-pyrazol-4-yl)-6-(trifluoromethyl)picolinamide], for which the 50% inhibitory concentration (IC50) is above 1 µM.

Consider `O=C(Nc1cn(-c2ccccc2)nc1C1CC1)c1cccc(C(F)(F)F)n1` [Compound A71, N-(3-cyclopropyl-1-phenyl-1H-pyrazol-4-yl)-6-(trifluoromethyl)picolinamide], for which the IC50 was above 1 µM.

For the compound `O=C(Nc1cn(-c2ccccc2)nc1C1CCC1)c1cccc(C(F)(F)F)n1` [Compound A72, N-(3-cyclobutyl-1-phenyl-1H-pyrazol-4-yl)-6-(trifluoromethyl)picolinamide], the IC50 was above 1 µM.

With `O=C(Nc1cn(-c2ccccc2)nc1CO)c1cccc(C(F)(F)F)n1` [Compound A74, N-(3-(hydroxymethyl)-1-phenyl-1H-pyrazol-4-yl)-6-(trifluoromethyl)picolinamide], the IC50 was 0.1 to 1 µM.

For the compound `CC(O)c1nn(-c2ccccc2)cc1NC(=O)c1cccc(C(F)(F)F)n1` (stereo not drawn) [Compound A75, N-(3-(1-hydroxyethyl)-1-phenyl-1H-pyrazol-4-yl)-6-(trifluoromethyl)picolinamide], the half-maximal inhibitory concentration (IC50) lay in the range of 0.1 to 1 µM.

In the case of `O=C(Nc1cn(-c2ccccc2)nc1C(=O)NC1CC1)c1cccc(C(F)(F)F)n1` [Compound A86, N-(3-(cyclopropylcarbamoyl)-1-phenyl-1H-pyrazol-4-yl)-6-(trifluoromethyl)picolinamide], the 50% inhibitory concentration (IC50) was in the range of 0.1 to 1 µM.

With `NC(=O)c1nn(-c2ccccc2)cc1NC(=O)c1cccc(-c2cc[nH]n2)n1` [Compound A88], the 50% inhibitory concentration (IC50) was below 0.1 µM.

Take `NC(=O)c1nn(-c2ccccc2)cc1NC(=O)c1cccc(-c2cn[nH]c2)n1` [Compound A89]: the IC50 was below 0.1 µM.

Regarding `NC(=O)c1nn(-c2ccccc2)cc1NC(=O)c1cccc(-c2c[nH]cn2)n1` [Compound A90], the IC50 is below 0.1 µM.

Take `NC(=O)c1nn(-c2ccccc2)cc1NC(=O)c1cccc(-c2cc[nH]c2)n1` [Compound A91]: the half-maximal inhibitory concentration (IC50) was 0.1 to 1 µM.

Regarding `NS(=O)(=O)c1nn(-c2ccccc2)cc1NC(=O)c1cccc(-c2cc[nH]n2)n1` [Compound A92, N-(1-phenyl-3-sulfamoyl-1H-pyrazol-4-yl)-6-(1H-pyrazol-3-yl)picolinamide], the concentration for half-maximal inhibition (IC50) was below 0.1 µM.

Take `NS(=O)(=O)c1nn(-c2ccccc2)cc1NC(=O)c1cccc(-c2cn[nH]c2)n1` [Compound A93]: the IC50 is below 0.1 µM.
